Reference: the Biogen ADME set (Fang et al. 2023)
In brackets after ≈: the same amount, converted by molar mass.

Conditions: for aqueous solubility: pH 6.8

Compound	MDR1-MDCK efflux ratio	intrinsic clearance, human liver microsomes [mL/min/kg]	intrinsic clearance, rat liver microsomes [mL/min/kg]	aqueous solubility [µg/mL]	fraction unbound, human plasma	fraction unbound, rat plasma
Cc1ccc(-n2c(S)nnc2-c2ccc(O)cc2)c(C)c1	34.6	10.1	129	28.9 (≈ 97.3 µM)		
Cc1cc(C)c2c(c1)CCCN2C(=O)c1ccc(-c2nnc(C)o2)cc1	0.685	149	2090	52.2 (≈ 150 µM)		
COc1ccc(-c2nn(C)c3ccccc23)c(OC)c1OC	0.515	95.4	1270			
CCCCCNC(=N)N/N=C/c1c[nH]c2ccc(OC)cc12	72	10.3	182	30.1 (≈ 100 µM)		
CC(=O)NC[C@H]1C[C@]2(C)[C@@H](CCCC[C@]2(C)O)N1CC1(O)CCCC1	8.2	≤ 4.74	107			
Cc1ccc(S(=O)(=O)Nc2ccc3c(c2)c2c(n3S(=O)(=O)c3ccc(C)cc3)CCC2)cc1		230	1490			
Cn1nc(-c2cc(F)cc(F)c2)cc1N	0.607	43.8	48.7			
Cc1cc(C(=O)NCC2CCC3(CC2)OCCO3)[nH]n1	4.03	≤ 4.74	99.2			
CCc1cc(N(C)Cc2ccc(N)nc2)nc(C)n1	1.99	≤ 4.74	≤ 10.7	36.5 (≈ 142 µM)		
Cc1nnc(NCCc2ccc3c(c2)OCO3)c(C#N)c1C	0.636	52.1	935	22.4 (≈ 75.6 µM)		
Cc1nc2c(cnn2C(C)C)c(C)c1CCC(=O)O		≤ 4.74	≤ 10.7	25.7 (≈ 98.3 µM)		
COc1ccc(COc2ccc(Cc3cnc(N)nc3N)cc2OC)cc1	11	13.3	249			
CC(C)N1CC[C@H](c2nnc(-c3cncn3C)o2)C1		≤ 4.74	79.2	39.3 (≈ 150 µM)		
Cc1c[nH]c(CNCc2ccccc2CC(C)C)n1	3.79	35.6	2700			
O=C(NCC1=CCCN(Cc2cc(F)ccc2Cl)C1)c1ccco1	0.69	200	1640	37.8 (≈ 108 µM)		
CCCc1nc2nc(C)c(NS(=O)(=O)c3ccc(C4CCCCC4)cc3)c(O)n2n1	50.3	169		43.9 (≈ 102 µM)	0.00604	0.00729
N#CCSCC(=O)NC1CCCCCC1	0.743	≤ 4.74	38.2	44.8 (≈ 198 µM)		
NC[C@@](O)(c1ccc(Cl)cc1)c1ccc(-c2cn[nH]c2)cc1	1.61	≤ 4.74	28			

Compound	MDR1-MDCK efflux ratio	intrinsic clearance, human liver microsomes [mL/min/kg]	intrinsic clearance, rat liver microsomes [mL/min/kg]	aqueous solubility [µg/mL]	fraction unbound, human plasma	fraction unbound, rat plasma
CN(C)c1ccc(-c2ccc(COCc3cccs3)cc2)nn1	0.483	76.5	410	1.35 (≈ 4.15 µM)		
Cc1ccc(-n2cc[nH]c(=O)c2=O)cc1	1.05	≤ 4.74	≤ 10.7	42.9 (≈ 212 µM)		
Cc1ccc(-c2cnc(N)cn2)c2cccnc12	0.671	23.1	75.4	31.8 (≈ 135 µM)		
CCCn1c(=O)c2c(nc3n2CCN3c2ccc(C)cc2)n(C)c1=O				0.15 (≈ 0.442 µM)		
Cc1cc(C(F)(F)F)nc(CCNC(=O)N(C)Cc2c(C)noc2C)n1	16.4	172	578			
CN(CCOc1ccccc1)CC(=O)NCCc1ccccc1	0.728	267	5420			
O=C(Nc1cn(CCOCC(F)(F)F)nc1-c1ccccn1)c1coc(-c2cn[nH]c2)n1	6.03	51.7	518			
Cc1nccc(-c2cn(Cc3ccccc3)c3cnccc23)n1	0.675	51.4	2130	33.7 (≈ 112 µM)	0.133	0.161
Cc1cc(C)n(CCNC(=O)NC2CCOCC2)n1	28.3	≤ 4.74	≤ 10.7	47.5 (≈ 178 µM)		
Cc1n[nH]c(C)c1Cc1ccc(NCCC(C)C)cc1	0.61	≤ 4.74	484	14.7 (≈ 54.2 µM)		
Cc1nc(-c2cnn(C)c2-c2ccc(C(F)(F)F)cn2)c2c(N3CCC3)ncnn12	12.2	54.3	294	65.1 (≈ 157 µM)		
COc1cccc(CC(=O)Nc2ccc3nc(C)sc3c2)c1	0.818	33.7	342	52.3 (≈ 168 µM)		
O=C1CCCc2c1[nH]c1cc(-n3ccnc3-c3ccncc3)ccc21	14.5	26.7	187	6.53 (≈ 19.9 µM)		
O=c1c(=O)n(-c2ccc(F)c(F)c2)ccn1Cc1ccccc1Cl	0.696			0.37 (≈ 1.06 µM)		
O=C(NCC1CCC2(CC1)OCCO2)c1[nH]nc2c1CCCC2	5.92	6.88	1270			
O=C(CCc1cn[nH]c1)NCCCn1cc(Cl)cn1	18.1	≤ 4.74	27.9			
COc1cccc([C@@H](C)n2cnc3cn(C)nc3c2=O)c1	1.44	≤ 4.74	67.2			
CNc1cc(Nc2cccn(-c3ccccn3)c2=O)nn2c(C(=O)N[C@@H]3C[C@@H]3F)cnc12	31.1	≤ 4.74	24.7	1.23 (≈ 2.83 µM)	0.098	0.033

Further lines, results first:

MDR1-MDCK efflux ratio	intrinsic clearance, human liver microsomes [mL/min/kg]	intrinsic clearance, rat liver microsomes [mL/min/kg]	aqueous solubility [µg/mL]	fraction unbound, human plasma	fraction unbound, rat plasma	Compound
0.68	7.63	61.4				CC(C)(C(=O)c1ccccc1)/[N+]([O-])=C/c1ccc(F)cc1
47.8						CN[C@@H](C)C(=O)N[C@H](C(=O)N1CCC[C@H]1C(=O)Nc1snnc1-c1ccccc1)C1CCCCC1
1.11	5.03	50.9	59.7 (≈ 161 µM)			COc1ccc(N2CCCN(CC3CCN(C(=O)C4CC4)CC3)CC2)cc1
28	≤ 4.74	≤ 10.7	29.2 (≈ 72.6 µM)			COc1cc(OC)c(OC)cc1CNc1ccc(N2CCOCC2)c(C(=O)O)c1
0.608	444	2220				COCc1ccccc1COC(=O)c1ccc(C)nc1
2.35	≤ 4.74	≤ 10.7	43.9 (≈ 129 µM)			CN(C)C(=O)CN1CCN(C(=O)c2ccc3ccccc3c2O)CC1
28	281	1650				O=C(c1cccc(Nc2ncccn2)c1)N1CCOCC(Cc2cccc3ccncc23)C1 (stereo not drawn)
2.16	155	790	6.94 (≈ 15.8 µM)			CCOC(=O)C1(Cc2cc(-c3ccc(F)cc3)no2)CCN(Cc2ccccc2O)CC1
0.562	22.1	2210	54.7 (≈ 272 µM)			N#Cc1ccccc1N1CCC(N)CC1
0.361	≤ 4.74	≤ 10.7				c1ccc(CC2=NCCN2)cc1
0.465	105	310				Cc1cc(Cl)n(-c2ccc(C#N)cc2)n1
0.591	283	4220	29.4 (≈ 112 µM)			CN(Cc1cccc(C#N)c1)Cc1ccccc1C#N
0.391	127	2000	26.3 (≈ 88.1 µM)			Cc1ccc2oc([C@H]3CCN(Cc4cccs4)C3)nc2c1
0.616	8.32	50.3	34.1 (≈ 133 µM)			O=C(NCC1CCC1)c1ccc(-n2ccnc2)nn1
2.95	8.95	43.4				CCc1c(-c2ccccc2)[n+]([O-])c2c([n+]1[O-])CCCCC2
	172	1520	49.2 (≈ 153 µM)			O=C(C1CCCN(c2ccccn2)C1)N1CCc2ccccc2C1 (stereo not drawn)
26.5	82.5	507	25.8 (≈ 64.8 µM)			CC(=O)Nc1ccnn1C1CCN(Cc2ccccc2C#Cc2ccccc2)CC1
6.13	≤ 4.74	54.6	43.2 (≈ 165 µM)			COc1ccccc1CC(=O)NC1CCN(C)CC1
6.17	≤ 4.74	133	8.26 (≈ 22.5 µM)			O=C(NCc1ccc(F)cc1)C1CCN(C(=O)/C=C/c2ccccc2)CC1
